Assay results from patent US5128448A, “CCK analogs with appetite regulating activity” (Hoffman-La Roche Inc., priority 1990, dated 1992).
Non-standard residues stand in square brackets, D forms with d. Residues, ends and D or L forms follow the SMILES beside them. sY = N[C@@H](Cc1ccc(OS(=O)(=O)O)cc1)C(=O)O; 2Nal = N[C@@H](Cc1ccc2ccccc2c1)C(=O)O; Cha = N[C@@H](CC1CCCCC1)C(=O)O

Molecular target: Human neutral metalloendopeptidase (Homo sapiens, UniProt P08473)
Assay: Degradation by human neutral metalloendopeptidase (HPLC)
Assay type: in vitro ADME
Settings: for % Degradation by Heights: 37° C., tris-HCl pH 7.6; for No. of Peaks: HPLC
Procedure: Human neutral metalloendopeptidase (0.01 mg) and 5 nmol of peptide were incubated in […] tris-HCl buffer (pH 7.6) and at 37° C. for varying periods of time. The degradation of the peptide was monitored by analytical HPLC on a 5 micron Adsorbosphere-ODS column with 0-50% CH3 CN gradient in 0.1N potassium phosphate buffer, pH 3.0, with UV detection at 210 nm. Rates are based on presumed production of Asp-Tyr(SO3 H)-Met-Gly for CCK-8 and Ac-Tyr(SO3 H)-Met-Gly for the compound of example 73.

Sequence of Human neutral metalloendopeptidase (P08473 whole entry): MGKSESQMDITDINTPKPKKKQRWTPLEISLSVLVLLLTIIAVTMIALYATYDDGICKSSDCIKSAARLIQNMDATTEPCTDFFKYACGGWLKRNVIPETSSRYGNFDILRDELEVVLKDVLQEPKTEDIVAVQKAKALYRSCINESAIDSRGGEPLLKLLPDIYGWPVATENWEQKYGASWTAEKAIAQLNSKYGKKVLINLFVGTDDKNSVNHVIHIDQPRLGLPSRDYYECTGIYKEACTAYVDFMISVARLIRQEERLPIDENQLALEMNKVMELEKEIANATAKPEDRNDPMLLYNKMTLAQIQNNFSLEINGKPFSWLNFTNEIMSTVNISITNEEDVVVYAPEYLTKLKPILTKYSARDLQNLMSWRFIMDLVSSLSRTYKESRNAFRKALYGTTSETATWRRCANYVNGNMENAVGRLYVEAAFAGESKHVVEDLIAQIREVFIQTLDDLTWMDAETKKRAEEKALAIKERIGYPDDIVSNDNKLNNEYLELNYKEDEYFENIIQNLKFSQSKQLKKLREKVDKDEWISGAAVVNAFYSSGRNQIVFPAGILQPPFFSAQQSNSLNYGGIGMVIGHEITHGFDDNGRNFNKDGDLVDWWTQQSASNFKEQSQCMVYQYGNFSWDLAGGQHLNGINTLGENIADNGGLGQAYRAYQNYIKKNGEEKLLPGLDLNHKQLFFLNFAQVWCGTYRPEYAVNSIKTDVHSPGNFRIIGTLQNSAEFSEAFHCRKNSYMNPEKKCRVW

CSCC[C@H](NC(=O)[C@H](Cc1ccc(OS(=O)(=O)O)cc1)NC(=O)[C@@H](N)CC(=O)O)C(=O)NCC(=O)N[C@@H](Cc1c[nH]c2ccccc12)C(=O)N[C@@H](CCSC)C(=O)N[C@@H](CC(=O)O)C(=O)N[C@@H](Cc1ccccc1)C(N)=O [CCK-8, Asp^26 -Tyr-(SO3 H)^27 -Met^28 -Gly^29 -Trp^30 -Met^31 -Asp^32 -Phe^33 -NH2]
% Degradation by Heights (time of incubation 0 min): 0% | % Degradation by Heights (time of incubation 15 min): 6.2% | % Degradation by Heights (time of incubation 30 min): 33.2% | % Degradation by Heights (time of incubation 60 min): 69.7% | No. of Peaks (time of incubation 60 min): 4

CSCC[C@H](NC(=O)[C@H](Cc1ccc(OS(=O)(=O)O)cc1)NC(C)=O)C(=O)NCC(=O)N[C@@H](Cc1ccc2ccccc2c1)C(=O)N[C@@H](CCSC)C(=O)N[C@@H](CC(=O)O)C(=O)N[C@@H](CC1CCCCC1)C(N)=O [Example 73, Ac-Tyr(SO3 H)-Met-Gly-(2)Nal-Met-Asp-Cyclohexylalanine-NH2] (Ac-[sY]MG[2Nal]MD[Cha]-NH2)
% Degradation by Heights (time of incubation 0 min): 0% | % Degradation by Heights (time of incubation 60 min): 10.0% | % Degradation by Heights (time of incubation 120 min): 27.0% | % Degradation by Heights (time of incubation 240 min): 56.4% | No. of Peaks (time of incubation 240 min, one peak detected and one peak that coeluted with substrate): 2
